Experimental data: US12018267B2, “Plants having increased tolerance to herbicides” (BASF SE, priority 2015, dated 2024)
Several values for one entry are separate records, joined by “and”; a condition that tells them apart may be missing. Equal values may be shown once.

Legend:
[1] = test system: wild type rice materials (O. sativa M2 Volano); experiment: Greenhouse foliar application, crop injury on wild type rice materials (Tables E10-1, E10-2); type: in vivo, Oryza sativa; conditions: wild type rice (OsCESA WT)
Source text: Oryza sativa M2 Volano is a cellulose biosynthesis inhibitor susceptible rice risotto population that was subjected to sodium azide seed mutagenesis but was not tilled nor selected for CESA mutations. O. sativa Volano-M3-CESA1 and CESA3 mutants were selected from a subpopulation of O. sativa M2 Volano by sequencing CESA gene sequences in M2 plants and maintaining (producing seed through selfing) those individuals containing key mutations in these genes. The tolerance of the M3 CESA1 and CESA3 mutants was assessed using 6-(1-fluorocyclopentyl)-N2-(2,3,5,6-tetrafluorophenyl)-1,3,5-triazine-2,4-diamine, together with 1.0% DASH® EC adjuvant (BASF). The tolerance of M4 CESA1 and CESA3 mutants was assessed using 6-cyclopentyl-N4-(2,3,4,5,6-pentafluorophenyl)-1,3,5-triazine-2,4-diamine, together with 1.0% DASH® EC adjuvant (BASF).
M3 seed, which were harvested from tilled and selected individuals containing mutations in the CESA1 and CESA3 genes, were grown in the greenhouse under natural light conditions supplemented with 400 W sodium halide lamps under a 16 hr day length. Day/night temperatures were 26 and 20° C., respectively. The number of M3 plants from each line varied between 2 and 16, depending on seed availability and germination. A non-selective CBI, azine 6-(1-fluorocyclopentyl)-N2-(2,3,5,6-tetrafluorophenyl)-1,3,5-triazine-2,4-diamine, formulated with 1.0% DASH in a water volume of 375 L/ha was applied early post-emergent (one to two leaf stage) at a rate of 250 g ai/ha to M3 CESA1 and CESA3 mutant rice plants growing in soil in the greenhouse. Only plants originating from lines having more than four seeds were subjected to herbicide treatment. CESA mutant lines with four or fewer seeds were selfed for an additional generation and then tested at the M4 generation with 6-cyclopentyl-N4-(2,3,4,5,6-pentafluorophenyl)-1,3,5-triazine-2,4-diamine. M4 plants were grown under similar conditions as M3 plants and treated with 250 g ai/ha or 500 g ai/ha of 6-cyclopentyl-N4-(2,3,4,5,6-pentafluorophenyl)-1,3,5-triazine-2,4-diamine. Previous kill curve greenhouse tests had identified that a rate of 250 g ai/ha of 6-(1-fluorocyclopentyl)-N2-(2,3,5,6-tetrafluorophenyl)-1,3,5-triazine-2,4-diamine and a rate of 250 g ai/ha 6-cyclopentyl-N4-(2,3,4,5,6-pentafluorophenyl)-1,3,5-triazine-2,4-diamine, both with 1.0% DASH, were sufficient doses to kill O. sativa M2 Volano check plants. […] Plants were assessed for crop injury, using a scale from 0% injury to 100% injury, at 11 and 21 days after treatment (DAT) for M3 plants applied with 6-(1-fluorocyclopentyl)-N2-(2,3,5,6-tetrafluorophenyl)-1,3,5-triazine-2,4-diamine and 36 DAT for M4 plants applied with 6-cyclopentyl-N4-(2,3,4,5,6-pentafluorophenyl)-1,3,5-triazine-2,4-diamine. Plants without any symptoms were recorded as “0%” injury. Increasing levels of reduced leaf mass and reduced stalk stiffness, with respect to the untreated control plants, were recorded in the range of “1 to 49%” injury. Increasing levels of leaf abnormalities and leaf necrosis, along with increased levels of lodging, relative to the untreated control plants, were recorded in the range of “50 to 85%” injury. Dead or dying plants with necrosis of the apex and severe lodging were recorded between “86-100%”. Data on individual plants was assessed and recorded due to the low number of individuals per line and the fact that the CESA mutations in the M2 generation were heterozygous and therefore segregating at the M3 and M4 generations. […]

[2] = test system: O. sativa M2 Volano check plants; experiment: Previous kill curve greenhouse tests on rice check plants; type: in vivo, Oryza sativa; conditions: with 1.0% DASH
Method: M3 seed, which were harvested from tilled and selected individuals containing mutations in the CESA1 and CESA3 genes, were grown in the greenhouse under natural light conditions supplemented with 400 W sodium halide lamps under a 16 hr day length. Day/night temperatures were 26 and 20° C., respectively. The number of M3 plants from each line varied between 2 and 16, depending on seed availability and germination. […] Plants were assessed for crop injury, using a scale from 0% injury to 100% injury, at 11 and 21 days after treatment (DAT) for M3 plants applied with 6-(1-fluorocyclopentyl)-N2-(2,3,5,6-tetrafluorophenyl)-1,3,5-triazine-2,4-diamine and 36 DAT for M4 plants applied with 6-cyclopentyl-N4-(2,3,4,5,6-pentafluorophenyl)-1,3,5-triazine-2,4-diamine. Plants without any symptoms were recorded as “0%” injury. Increasing levels of reduced leaf mass and reduced stalk stiffness, with respect to the untreated control plants, were recorded in the range of “1 to 49%” injury. Increasing levels of leaf abnormalities and leaf necrosis, along with increased levels of lodging, relative to the untreated control plants, were recorded in the range of “50 to 85%” injury. Dead or dying plants with necrosis of the apex and severe lodging were recorded between “86-100%”. […]

SMILES | Crop Injury Assessment (%) at 20 DAT ([1]; foliar application 250 g ai/ha, 20 DAT) | rate sufficient to kill O. sativa M2 Volano check plants [2] | Crop injury assessment (%) at 23 DAT ([1]; foliar application 250 g ai/ha) | Crop injury assessment (%) at 36 DAT ([1]; foliar application 250 g ai/ha) | Crop injury assessment (%) at 23 DAT ([1]; foliar application 500 g ai/ha) | Crop injury assessment (%) at 36 DAT ([1]; foliar application 500 g ai/ha)
Nc1nc(Nc2c(F)c(F)cc(F)c2F)nc(C2(F)CCCC2)n1 [6-(1-fluorocyclopentyl)-N2-(2,3,5,6-tetrafluorophenyl)-1,3,5-triazine-2,4-diamine] | 100% | 250 g ai/ha |  |  |  | 
Nc1nc(Nc2c(F)c(F)c(F)c(F)c2F)nc(C2CCCC2)n1 [6-cyclopentyl-N4-(2,3,4,5,6-pentafluorophenyl)-1,3,5-triazine-2,4-diamine] |  | 250 g ai/ha | 75% and 65% | 70% and 95% | 98% and 95% | 100%
